Assays:
Assay type in all cases: in vivo
[1] = system: redroot pigweed (Amaranthus retroflexus, AMARE); assay: Pre-emerge test, greenhouse herbicide activity screening; settings: pre-emerge, 14 days after application, rating scale 0-100
In short: (§1)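 Rating: 0–100 visual injury, 14 DAA. Application: acetone, 187 l/ha, 15–1000 g ai/ha, flat-fan track sprayer with nozzle 40–45 cm above soil or canopy. Post-emerge runs used 0.25% v/v surfactant on 2–3 leaf plants.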

[2] = system: barnyardgrass (Echinochloa crus-galli, ECHCG); assay: as above; settings: pre-emerge, 14 days after application, rating scale 0-100
In short: (§2)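 Compounds in acetone were track-sprayed at 15–1000 g ai/ha: pre-emergence onto soil sown the previous day, then top-watered to incorporate and later bottom-watered; post-emergence onto 2–3 leaf plants with 0.25% v/v surfactant, bottom-watered only. Ratings on a 0–100 phytotoxicity scale were taken at day 14.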

[3] = system: green foxtail (Setaria viridis, SETVI); assay: as above; settings: pre-emerge, 14 days after application, rating scale 0-100
In short: as §2

[4] = system: ivyleaf morningglory (Ipomoea hederacea, IPOHE); assay: as above; settings: pre-emerge, 14 days after application, rating scale 0-100
In short: as §2

[5] = system: johnsongrass (Sorghum halepense, SORHA); assay: as above; settings: pre-emerge, 14 days after application, rating scale 0-100
In short: as §2

[6] = system: lambsquarters (Chenopodium album, CHEAL); assay: as above; settings: pre-emerge, 14 days after application, rating scale 0-100
In short: as §2

[7] = system: large crabgrass (Digitaria sanguinalis, DIGSA); assay: as above; settings: pre-emerge, 14 days after application, rating scale 0-100
In short: as §2

[8] = system: sicklepod (Cassia obtusifolia, CASOB); assay: as above; settings: pre-emerge, 14 days after application, rating scale 0-100
In short: as §2

[9] = system: velvetleaf (Abutilon theophrasti, ABUTH); assay: as above; settings: pre-emerge, 14 days after application, rating scale 0-100
In short: as §2

[10] = system: field corn (Zea mays L., var. Dekalb 535, CORN); assay: Pre-emerge test, crop safety; settings: pre-emerge, 14 days after application, rating scale 0-100
In short: (§3)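 Fourteen days after spraying, crop and weed injury was graded visually from 0, no effect, to 100, every plant dead. Test substances were dissolved in acetone and applied at 15–1000 g ai/ha with a flat-fan nozzle. Application was either pre-emergence, one day after sowing, or post-emergence at the 2–3 leaf stage.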

[11] = system: upland rice (Oryza sp., var. Tebonnet, RICE); assay: Pre-emerge test, crop safety; settings: pre-emerge, 14 days after application, rating scale 0-100
In short: as §3

[12] = system: barnyardgrass (Echinochloa crus-galli, ECHCG); assay: Post-emerge test, greenhouse herbicide activity screening; settings: post-emerge, 14 days after application, rating scale 0-100
In short: as §2

[13] = system: green foxtail (Setaria viridis, SETVI); assay: as above; settings: post-emerge, 14 days after application, rating scale 0-100
In short: as §2

[14] = system: ivyleaf morningglory (Ipomoea hederacea, IPOHE); assay: as above; settings: post-emerge, 14 days after application, rating scale 0-100
In short: as §2

[15] = system: johnsongrass (Sorghum halepense, SORHA); assay: as above; settings: post-emerge, 14 days after application, rating scale 0-100
In short: as §2

[16] = system: large crabgrass (Digitaria sanguinalis, DIGSA); assay: as above; settings: post-emerge, 14 days after application, rating scale 0-100
In short: as §2

[17] = system: redroot pigweed (Amaranthus retroflexus, AMARE); assay: as above; settings: post-emerge, 14 days after application
In short: as §2

[18] = system: sicklepod (Cassia obtusifolia, CASOB); assay: as above; settings: post-emerge, 14 days after application, rating scale 0-100
In short: as §2

[19] = system: velvetleaf (Abutilon theophrasti, ABUTH); assay: as above; settings: post-emerge, 14 days after application, rating scale 0-100
In short: as §2

[20] = system: field corn (Zea mays L., var. Dekalb 535, CORN); assay: Post-emerge test, crop safety; settings: post-emerge, 14 days after application, rating scale 0-100
In short: as §1

[21] = system: upland rice (Oryza sp., var. Tebonnet, RICE); assay: Post-emerge test, crop safety; settings: post-emerge, 14 days after application, rating scale 0-100
In short: as §1

With `COc1c(Cl)cc(F)c(-n2c(=O)cc(C(F)(F)F)n(C)c2=O)c1NNC(=O)C1CC1` [Compound 15-2, 3-[4-chloro-2-(2-cycopropanecarbonyldiazanyl)-6-fluoro-3-methoxyphenyl]-1-methyl-6-trifluoromethyl-2,4(1H, 3H)-pyrimidinedione] as the compound, how does the “phytotoxicity rating AMARE” value ([1]; 63 g ai/ha) read?
Its value is 100.

And the “phytotoxicity rating AMARE” value ([1]; 250 g ai/ha)?
Its value is 100.

What about the “phytotoxicity rating ECHCG” value ([2]; 63 g ai/ha) of the same compound?
The value was 100.

What about the “phytotoxicity rating ECHCG” value ([2]; 250 g ai/ha) of the same compound?
Its value is 100.

What about the “phytotoxicity rating SETVI” value ([3]; 63 g ai/ha) of the same compound?
The value was 100.

What about the “phytotoxicity rating SETVI” value ([3]; 250 g ai/ha) of the same compound?
Its value is 100.

What about the “phytotoxicity rating IPOHE” value ([4]; 63 g ai/ha) of the same compound?
Its value is 10.

What about the “phytotoxicity rating IPOHE” value ([4]; 250 g ai/ha) of the same compound?
Its value is 100.

What about the “phytotoxicity rating SORHA” value ([5]; 63 g ai/ha) of the same compound?
Its value is 100.

And the “phytotoxicity rating SORHA” value ([5]; 250 g ai/ha)?
The value was 100.

What about the “phytotoxicity rating CHEAL” value ([6]; 63 g ai/ha) of the same compound?
The value was 100.

What about the “phytotoxicity rating CHEAL” value ([6]; 250 g ai/ha) of the same compound?
The value was 100.

What about the “phytotoxicity rating DIGSA” value ([7]; 63 g ai/ha) of the same compound?
The value was 100.

And the “phytotoxicity rating DIGSA” value ([7]; 250 g ai/ha)?
Its value is 100.

And the “phytotoxicity rating CASOB” value ([8]; 63 g ai/ha)?
Its value is 100.

What about the “phytotoxicity rating CASOB” value ([8]; 250 g ai/ha) of the same compound?
The value was 100.

What about the “phytotoxicity rating ABUTH” value ([9]; 63 g ai/ha) of the same compound?
The value was 100.

What about the “phytotoxicity rating ABUTH” value ([9]; 250 g ai/ha) of the same compound?
Its value is 100.

What about the “phytotoxicity rating CORN” value ([10]; 63 g ai/ha) of the same compound?
The value was 80.

What about the “phytotoxicity rating CORN” value ([10]; 250 g ai/ha) of the same compound?
The value was 100.

And the “phytotoxicity rating RICE” value ([11]; 63 g ai/ha)?
Its value is 99.

And the “phytotoxicity rating RICE” value ([11]; 250 g ai/ha)?
Its value is 100.

What about the “Post-emerge Herbicidal Activity ECHCG (phytotoxicity rating)” value ([12]; 63 g ai/ha) of the same compound?
The value was 0.

And the “Post-emerge Herbicidal Activity ECHCG (phytotoxicity rating)” value ([12]; 250 g ai/ha)?
Its value is 90.

What about the “Post-emerge Herbicidal Activity SETVI (phytotoxicity rating)” value ([13]; 63 g ai/ha) of the same compound?
Its value is 0.

What about the “Post-emerge Herbicidal Activity SETVI (phytotoxicity rating)” value ([13]; 250 g ai/ha) of the same compound?
The value was 80.

And the “Post-emerge Herbicidal Activity IPOHE (phytotoxicity rating)” value ([14]; 63 g ai/ha)?
The value was 90.

What about the “Post-emerge Herbicidal Activity IPOHE (phytotoxicity rating)” value ([14]; 250 g ai/ha) of the same compound?
Its value is 100.

What about the “Post-emerge Herbicidal Activity SORHA (phytotoxicity rating)” value ([15]; 63 g ai/ha) of the same compound?
Its value is 0.

What about the “Post-emerge Herbicidal Activity SORHA (phytotoxicity rating)” value ([15]; 250 g ai/ha) of the same compound?
The value was 70.

And the “Post-emerge Herbicidal Activity DIGSA (phytotoxicity rating)” value ([16]; 63 g ai/ha)?
The value was 0.

What about the “Post-emerge Herbicidal Activity DIGSA (phytotoxicity rating)” value ([16]; 250 g ai/ha) of the same compound?
The value was 80.

What about the “Post-emerge Herbicidal Activity AMARE (phytotoxicity rating)” value ([17]; 63 g ai/ha, rating scale 0-100 (0 no damage, 100 complete death)) of the same compound?
Its value is 20.

What about the “Post-emerge Herbicidal Activity AMARE (phytotoxicity rating)” value ([17]; 250 g ai/ha, rating scale 0-100) of the same compound?
The value was 95.

What about the “Post-emerge Herbicidal Activity CASOB (phytotoxicity rating)” value ([18]; 63 g ai/ha) of the same compound?
Its value is 10.

What about the “Post-emerge Herbicidal Activity CASOB (phytotoxicity rating)” value ([18]; 250 g ai/ha) of the same compound?
Its value is 75.

And the “Post-emerge Herbicidal Activity ABUTH (phytotoxicity rating)” value ([19]; 63 g ai/ha)?
Its value is 80.

What about the “Post-emerge Herbicidal Activity ABUTH (phytotoxicity rating)” value ([19]; 250 g ai/ha) of the same compound?
The value was 100.

What about the “Post-emerge Herbicidal Activity CORN (crop damage rating)” value ([20]; 63 g ai/ha) of the same compound?
Its value is 15.

And the “Post-emerge Herbicidal Activity CORN (crop damage rating)” value ([20]; 250 g ai/ha)?
Its value is 80.

And the “Post-emerge Herbicidal Activity RICE (crop damage rating)” value ([21]; 63 g ai/ha)?
The value was 50.

What about the “Post-emerge Herbicidal Activity RICE (crop damage rating)” value ([21]; 250 g ai/ha) of the same compound?
The value was 75.
